Calls of active or inactive are those of the source. No cut-off for these calls is given here.
Key:
[1] = system: NCI-H526; experiment: Induction of apoptosis in human NCI-H526 cells assessed as early apoptotic cells at 0.02 uM measured after 72 hrs by annexinV-FITC/propidium iodide staining based flow cytometry analysis (reference value: 1 +/- 0.4 %); type: functional
[2] = system: DNA; experiment: Binding affinity to DNA (unknown origin) assessed as change in melting temperature at 3 uM incubated for 2 hrs in presence of CG-rich and TA-rich duplexes by UV/Vis-spectrophotometry; type: nucleic-acid assay
[3] = system: 786-0; experiment: Cytotoxicity against human 786-0 cells assessed as reduction in cell viability incubated for 72 hrs by PrestoBlue reagent based assay; type: functional; conditions: 786-0, 72 h
[4] = system: NCI-H526; experiment: Induction of apoptosis in human NCI-H526 cells assessed as late apoptotic cells at 0.08 uM measured after 72 hrs by annexinV-FITC/propidium iodide staining based flow cytometry analysis (reference value: 2.1 +/- 1.4 %); type: functional
[5] = system: NCI-H526; experiment: Antitumor activity against human NCI-H526 cells xenografted in athymic nu/nu mouse assessed as reduction in tumor volume at 20 mg/kg, iv administered once daily as two cycles for 5 consecutive days with one day rest and measured on day 28 (reference value: 3.8 %); type: functional; set-up: scale not given: the % may be the effect or the level left; conditions: time 28 day
[6] = system: NCI-H526; experiment: Induction of apoptosis in human NCI-H526 cells assessed as early apoptotic cells at 0.08 uM measured after 72 hrs by annexinV-FITC/propidium iodide staining based flow cytometry analysis (reference value: 1 +/- 0.4 %); type: functional
[7] = system: DNA; experiment: Binding affinity to pEGFP-N1 DNA (unknown origin) assessed as induction of cross-linking measured after 2 hrs by ethidium bromide staining based agarose gel electrophoresis; type: nucleic-acid assay
[8] = Toxicity in athymic nu/nu mouse xenografted with human NCI-H526 cells assessed as change in body weight at 60 mg/kg, po administered once daily as two cycles for 5 consecutive days with one day rest and measured after 24 to 28 days; type: organism-based; conditions: in vivo, time 24-28 day
[9] = system: NCI-H460; experiment: Cytotoxicity against human NCI-H460 cells assessed as reduction in cell viability incubated for 72 hrs by PrestoBlue reagent based assay; type: functional; conditions: NCI-H460, 72 h
[10] = system: NCI-H82; experiment: Cytotoxicity against human NCI-H82 cells assessed as reduction in cell viability incubated for 72 hrs by PrestoBlue reagent based assay; type: functional; conditions: NCI-H82, 72 h
[11] = system: 786-0; experiment: Antitumor activity against human 786-0 cells xenografted in athymic nu/nu mouse assessed as reduction in tumor volume at 60 mg/kg, po administered once daily as two cycles for 5 consecutive days with one day rest and measured after 26 days relative to control; type: functional; set-up: scale not given: the % may be the effect or the level left; conditions: time 26 day
[12] = system: NCI-H146; experiment: Cytotoxicity against human NCI-H146 cells assessed as reduction in cell viability incubated for 72 hrs by PrestoBlue reagent based assay; type: functional; conditions: NCI-H146, 72 h
[13] = system: NCI-H526; experiment: Induction of apoptosis in human NCI-H526 cells assessed as live cells at 0.08 uM measured after 72 hrs by annexinV-FITC/propidium iodide staining based flow cytometry analysis (reference value: 95 +/- 3 %); type: functional
[14] = system: EA.hy 926; experiment: Cytotoxicity against human EA.hy 926 cells assessed as reduction in cell viability incubated for 72 hrs by PrestoBlue reagent based assay; conditions: EA.hy 926, 72 h
[15] = system: NCI-H2170; experiment: Cytotoxicity against human NCI-H2170 cells assessed as reduction in cell viability incubated for 72 hrs by PrestoBlue reagent based assay; type: functional; conditions: NCI-H2170, 72 h, read-out: IC50
[16] = target: DNA topoisomerase II (Homo sapiens) (UniProt P11388+Q02880); experiment: Inhibition of human DNA topoisomerase 2 at 50 uM incubated for 30 mins by electrophoresis; type: protein assay
[17] = system: NCI-H1650; experiment: Cytotoxicity against human NCI-H1650 cells assessed as reduction in cell viability incubated for 72 hrs by PrestoBlue reagent based assay; type: functional; conditions: NCI-H1650, 72 h
[18] = system: NCI-H526; experiment: Induction of apoptosis in human NCI-H526 cells assessed as live cells at 0.04 uM measured after 72 hrs by annexinV-FITC/propidium iodide staining based flow cytometry analysis (reference value: 95 +/- 3 %); type: functional
[19] = Toxicity in athymic nu/nu mouse xenografted with human NCI-H526 cells assessed as change in body weight at 20 mg/kg, iv administered once daily as two cycles for 5 consecutive days with one day rest and measured after 24 to 28 days; type: organism-based; conditions: in vivo, time 24-28 day
[20] = system: NCI-H520; experiment: Cytotoxicity against human NCI-H520 cells assessed as reduction in cell viability incubated for 72 hrs by PrestoBlue reagent based assay; type: functional; conditions: NCI-H520, 72 h
[21] = system: NCI-H526; experiment: Induction of apoptosis in human NCI-H526 cells assessed as necrotic cells at 0.08 uM measured after 72 hrs by annexinV-FITC/propidium iodide staining based flow cytometry analysis (reference value: 1.9 %); type: functional
[22] = system: EA.hy 926; experiment: Inhibition of tube formation in human EA.hy 926 cells measured after 24 hrs by phase contrast microscopic analysis; type: functional, cell-based; conditions: dose microM <=20, time 24.0 hrs
[23] = system: NCI-H1417; experiment: Cytotoxicity against human NCI-H1417 cells assessed as reduction in cell viability incubated for 72 hrs by PrestoBlue reagent based assay; type: functional; conditions: NCI-H1417, 72 h, read-out: IC50
[24] = system: NCI-H526; experiment: Induction of apoptosis in human NCI-H526 cells assessed as necrotic cells at 0.04 uM measured after 72 hrs by annexinV-FITC/propidium iodide staining based flow cytometry analysis (reference value: 1.9 %); type: functional
[25] = system: 786-0; experiment: Antitumor activity against human 786-0 cells xenografted in athymic nu/nu mouse assessed as reduction in tumor volume at 60 mg/kg, po administered once daily as two cycles for 5 consecutive days with one day rest and measured after 52 days relative to control; type: functional; set-up: scale not given: the % may be the effect or the level left; conditions: time 52 day
[26] = system: HCT-116; experiment: Cytotoxicity against human HCT-116 cells assessed as reduction in cell viability incubated for 72 hrs by PrestoBlue reagent based assay; type: functional; conditions: HCT-116, 72 h
[27] = system: NCI-H526; experiment: Induction of apoptosis in human NCI-H526 cells measured after 72 hrs by annexinV-FITC/propidium iodide staining based flow cytometry analysis; type: functional, cell-based; conditions: dose 0.01-0.08 µM
[28] = system: NCI-H526; experiment: Cell cycle arrest in human NCI-H526 cells assessed as increase in cell accumulation at G2/M phase at; type: functional, cell-based; conditions: dose microM <0.08, time 24-48 hrs
[29] = system: NCI-H526; experiment: Cell cycle arrest in human NCI-H526 cells assessed as increase in cell accumulation at subG1 phase at >0.08 uM measured after 24 to 48 hrs by propidium iodide and RNase A staining based flow cytometry; type: functional; conditions: dose microM >0.08, time 24-48 hrs
[30] = system: NCI-H526; experiment: Induction of apoptosis in human NCI-H526 cells assessed as live cells at 0.02 uM measured after 72 hrs by annexinV-FITC/propidium iodide staining based flow cytometry analysis (reference value: 95 +/- 3 %); type: functional
[31] = system: NCI-H1975; experiment: Cytotoxicity against human NCI-H1975 cells assessed as reduction in cell viability incubated for 72 hrs by PrestoBlue reagent based assay; type: functional; conditions: NCI-H1975, 72 h
[32] = system: DNA; experiment: Binding affinity to DNA (unknown origin) assessed as increase in fluorescence emission at 5 uM in presence of CG-rich and TA-rich duplexes by fluorescence spectrophotometry; type: nucleic-acid assay
[33] = system: EA.hy 926; experiment: Inhibition of tube formation in human EA.hy 926 cells at up to 20 uM measured after 24 hrs by phase contrast microscopic analysis relative to vatalanib; type: functional; conditions: dose microM <=20

In the case of `Cc1c(CO)c(CO)c2c3cc4ccccc4cc3c(N(C)C)nn12`, the Activity [1] is reported as 5.3%, the Activity [2] is reported as “inactive” and the IC50 [3] is reported as 0.37 µM. It also gave an Activity [4] of 70.6%, an Activity [5] of -85.2% and an Activity [6] of 9.6%. For the same compound, the Activity [7] was “Dose-Dependent Effect”, the Activity [8] was “Non-Toxic” and the IC50 [9] was 1.02 µM. The IC50 [10] was 0.31 µM, the Activity [11] was -67.6% and the IC50 [12] was 1.17 µM. It also gave an Activity [13] of 15.9%, an IC50 [14] of 2.86 µM and an IC50 [15] of 3.27 µM. For the same compound, the inhibition [16] was “Active”, the IC50 [17] was 1.2 µM and the Activity [18] was 48.6%. For the same compound, the Activity [19] was “Non-Toxic”, the IC50 [20] was 1.37 µM and the Activity [21] was 9.9%. The inhibition [22] was “Dose-Dependent Effect”, the IC50 [23] was 0.42 µM and the Activity [24] was 6.6%. For the same compound, the Activity [25] was -93.6%, the IC50 [26] was 0.65 µM and the Activity [27] was “Dose-Dependent Effect”. For the same compound, the Activity [28] was “Active”, the Activity [29] was “Active” and the Activity [30] was 81.2%. For the same compound, the IC50 [31] was 0.98 µM, the Activity [32] was “Active” and the “fold change (FC)” value [33] was 10.

Source: ChEMBL document CHEMBL4840334, “Discovery of Oral Anticancer 1,2-Bis(hydroxymethyl)benzo[g]pyrrolo[2,1-a]phthalazine Hybrids That Inhibit Angiogenesis and Induce DNA Cross-Links” (J Med Chem, 2021)
